Results as given in ChEMBL document CHEMBL1201862, “PubChem BioAssay data set” (2004).
Calls of active or inactive are those of the source.

Assays:
[1] = target: Genome polyprotein (dengue virus type 2, UniProt P29990); test: Dengue-2 NS5 methyltransferase inhibitors, primary screen, biochemical, confirmation dose response (AID 588689); format: functional
[2] = target: Beta-2 adrenergic receptor (Homo sapiens, UniProt P07550); test: beta2AR agonists driving receptor internalization, dose response, cell-based, FAP fluorogen, flow cytometry, cherry pick 1 (AID 588763); format: functional
[3] = target: Cytochrome P450 2D6 (Homo sapiens, UniProt P10635);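 further: CYP2D6 member of a cytochrome P450 panel assay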
[4] = target: Glucose-6-phosphate 1-dehydrogenase (Homo sapiens, UniProt P11413); test: human G6PD enzyme inhibitors, dose response, selectivity assay for P. falciparum G6PD inhibitor project, biochemical, fluorescence (AID 504792); format: functional
[5] = target: T1, DNA repair and recombination protein RAD54-like (Homo sapiens, UniProt Q92698); test: inhibitors of human RAD54 branch migration, confirmation, biochemical, fluorescence, cherry-picked samples, dose series (AID 651657); format: functional
T1 sequence (Q92698 whole entry): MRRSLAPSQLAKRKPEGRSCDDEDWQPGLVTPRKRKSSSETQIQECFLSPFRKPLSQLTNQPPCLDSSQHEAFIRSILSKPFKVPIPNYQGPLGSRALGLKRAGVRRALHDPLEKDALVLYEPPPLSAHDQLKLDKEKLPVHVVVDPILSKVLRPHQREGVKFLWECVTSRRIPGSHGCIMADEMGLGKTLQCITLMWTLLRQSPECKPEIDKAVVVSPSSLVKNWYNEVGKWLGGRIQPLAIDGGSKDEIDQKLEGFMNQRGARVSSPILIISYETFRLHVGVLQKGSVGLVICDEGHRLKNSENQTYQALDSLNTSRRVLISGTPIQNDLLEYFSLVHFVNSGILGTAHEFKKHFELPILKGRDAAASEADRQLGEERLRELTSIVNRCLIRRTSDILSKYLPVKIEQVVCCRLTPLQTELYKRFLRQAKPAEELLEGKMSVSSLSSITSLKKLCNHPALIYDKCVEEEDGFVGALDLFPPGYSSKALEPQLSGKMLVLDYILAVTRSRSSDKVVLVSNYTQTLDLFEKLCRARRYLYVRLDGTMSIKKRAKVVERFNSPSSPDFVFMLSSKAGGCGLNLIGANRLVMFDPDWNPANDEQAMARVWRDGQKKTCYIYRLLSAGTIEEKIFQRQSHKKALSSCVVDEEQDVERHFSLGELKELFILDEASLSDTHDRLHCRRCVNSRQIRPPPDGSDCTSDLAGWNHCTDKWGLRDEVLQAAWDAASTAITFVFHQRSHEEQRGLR

[6] = target: T2, Fatty acid synthase (Homo sapiens, UniProt P49327); test: FAS thioesterase domain inhibitors, dose response, biochemical, kinetic fluorescence intensity (AID 624326); format: functional;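 further: rate of fluorescence rise from hydrolysis of a fluorogenic O-methyl fluorescein ester substrate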
[7] = target: T2, Fatty acid synthase; test: FAS thioesterase domain inhibitors, dose response, biochemical, endpoint fluorescence intensity, uHTS hits (AID 624327); format: functional;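 further: fluorescence from hydrolysis of an O-methyl fluorescein acyl ester substrate by the enzyme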
[8] = ARNT/TACC3 interaction disruptors, potency, confirmation, biochemical, AlphaScreen, cherry-picked samples (AID 651703); format: functional, Homo sapiens;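 further: His-tagged ARNT PAS-B domain paired with GST-TACC3 E629A dimer coactivator fragment; potency of inhibitors that break up the complex and lower AlphaScreen signal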
[9] = target: Paired box protein Pax-8 (Homo sapiens, UniProt Q06710); test: inhibitors of PAX8-driven TPO luciferase reporter, dose response, RMG-I cells, cherry-pick (AID 687027); format: functional, cell-based;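 further: luciferase reporter driven by Pax8 target thyroperoxidase promoter measured by SteadyGlo luminescence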
[10] = target: Ras and Rab interactor 1/Tyrosine-protein kinase ABL1 (Homo sapiens, UniProt P00519+Q13671); format: functional;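 further: biochemical TR-FRET dose-response test measuring inhibition of binding between Rin1 and Abl proteins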
[11] = target: Cytochrome P450 2C19 (Homo sapiens, UniProt P33261); test: Cytochrome panel assay with activity outcomes. Panel member name: p450-cyp2c19 Compounds with AC50 equal or less than 10 uM are considered active; format: functional
[12] = target: T3, Endoribonuclease toxin MazF (Escherichia coli K-12, UniProt P0AE70); test: fluorescent RNA oligo signal without MazF, dose response, counter-screen for MazEF activator project, biochemical, fluorescence, single-stranded RNase substrate (AID 588502); format: functional
T3 sequence (P0AE70 whole entry): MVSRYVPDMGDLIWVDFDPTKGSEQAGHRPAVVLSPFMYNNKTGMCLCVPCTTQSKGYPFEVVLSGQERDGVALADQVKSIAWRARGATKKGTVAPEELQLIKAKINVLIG

[13] = target: T4, Corticotropin-releasing factor receptor 2/Corticotropin-releasing factor-binding protein (Homo sapiens, UniProt P24387+Q13324); test: activators of CRF receptor 2 with binding protein – uHTS hits, confirmation (AID 602473); format: functional; settings: read-out: EC50_Mean
T4 sequence (Q13324 whole entry): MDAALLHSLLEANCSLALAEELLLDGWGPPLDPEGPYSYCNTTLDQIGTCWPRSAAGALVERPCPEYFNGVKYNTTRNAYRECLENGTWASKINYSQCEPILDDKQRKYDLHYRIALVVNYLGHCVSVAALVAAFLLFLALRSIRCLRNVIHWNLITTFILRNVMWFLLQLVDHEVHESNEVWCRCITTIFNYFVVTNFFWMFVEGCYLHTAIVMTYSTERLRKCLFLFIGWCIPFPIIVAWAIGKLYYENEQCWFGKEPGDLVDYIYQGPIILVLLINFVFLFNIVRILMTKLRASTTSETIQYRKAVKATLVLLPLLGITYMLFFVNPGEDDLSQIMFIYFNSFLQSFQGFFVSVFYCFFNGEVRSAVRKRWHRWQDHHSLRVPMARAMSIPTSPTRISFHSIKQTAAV
T4 sequence (P24387 whole entry): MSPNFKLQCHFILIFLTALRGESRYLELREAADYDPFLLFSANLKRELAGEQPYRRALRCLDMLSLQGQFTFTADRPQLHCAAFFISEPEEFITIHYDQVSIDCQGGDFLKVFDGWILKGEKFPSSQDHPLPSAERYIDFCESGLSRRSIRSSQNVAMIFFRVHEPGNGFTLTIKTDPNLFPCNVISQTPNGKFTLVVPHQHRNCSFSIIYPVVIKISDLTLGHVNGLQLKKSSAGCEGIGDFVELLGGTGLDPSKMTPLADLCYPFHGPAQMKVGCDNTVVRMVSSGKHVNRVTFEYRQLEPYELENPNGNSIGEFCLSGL

[14] = target: Cytochrome P450 2C9 (Homo sapiens, UniProt P11712)
[15] = target: Cytochrome P450 3A4 (Homo sapiens, UniProt P08684);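 further: CYP3A4 tested as one member of a cytochrome P450 panel screen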
[16] = target: T5, Zinc finger protein mex-5 (Caenorhabditis elegans, UniProt Q9XUB2); test: MEX-5/TCR-2 RNA interaction inhibitors, dose response, biochemical, C. elegans, fluorescence polarization (AID 1960)
T5 sequence (Q9XUB2 whole entry): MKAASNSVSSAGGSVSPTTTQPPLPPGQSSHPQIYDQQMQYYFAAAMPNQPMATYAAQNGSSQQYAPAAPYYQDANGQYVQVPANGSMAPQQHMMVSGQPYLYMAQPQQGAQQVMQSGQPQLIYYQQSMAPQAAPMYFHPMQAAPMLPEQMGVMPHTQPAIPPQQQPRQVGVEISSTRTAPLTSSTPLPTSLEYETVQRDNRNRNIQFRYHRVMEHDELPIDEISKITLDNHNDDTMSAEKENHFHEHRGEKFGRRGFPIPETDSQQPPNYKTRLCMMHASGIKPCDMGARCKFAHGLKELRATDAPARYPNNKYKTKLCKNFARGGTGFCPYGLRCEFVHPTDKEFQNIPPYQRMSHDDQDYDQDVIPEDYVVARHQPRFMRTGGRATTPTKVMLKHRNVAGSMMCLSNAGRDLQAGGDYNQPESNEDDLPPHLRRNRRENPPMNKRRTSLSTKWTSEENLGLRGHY

[17] = target: T6, RNA-binding protein pos-1 (Caenorhabditis elegans, UniProt G5EF15); test: inhibitors of POS-1/mex-3 RNA binding, dose response, biochemical, fluorescence polarization (AID 1964);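 further: purified POS-1 fused to maltose binding protein made in E. coli; potency of compounds blocking POS-1 binding to fluorescent RNA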
T6 sequence (G5EF15 whole entry): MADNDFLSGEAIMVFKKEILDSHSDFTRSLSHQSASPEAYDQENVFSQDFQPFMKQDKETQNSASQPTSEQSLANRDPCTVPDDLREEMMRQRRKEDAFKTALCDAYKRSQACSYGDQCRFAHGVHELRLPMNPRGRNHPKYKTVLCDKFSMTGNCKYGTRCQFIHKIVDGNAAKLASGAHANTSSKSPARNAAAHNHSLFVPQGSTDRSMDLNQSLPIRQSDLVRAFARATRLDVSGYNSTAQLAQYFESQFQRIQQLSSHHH

[18] = target: T3, Endoribonuclease toxin MazF; test: MazF toxin RNase activators, dose response, biochemical, fluorescence, single-stranded RNA substrate, uHTS hits (AID 588481); format: functional
[19] = tested on: HEK293; test: NOD1 signaling inhibitors, primary screen, cell-based, luminescence, uHTS (AID 1578); format: functional; settings: Homo sapiens
[20] = target: Nucleotide-binding oligomerization domain-containing protein 2 (Homo sapiens, UniProt Q9HC29); test: NOD2 signaling inhibitors, cell-based, luminescence, uHTS, HEK293 (AID 1566); format: functional
[21] = tested on: HEK293; test: cells; format: functional, cell-based; settings: Homo sapiens
[22] = inhibitors of intracellular T. cruzi replication, confirmation, NIH3T3 host cells, beta-gal luminescence (AID 2044); format: functional, cell-based;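 further: intracellular parasites grown in NIH/3T3 mouse fibroblasts as host cells; luminescent beta-galactosidase reporter signal from transgenic T. cruzi replicating inside host cells; inhibitors lower the luminescence signal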
[23] = tested on: HEK293; test: NOD2 signaling inhibitors in MDP-stimulated cells, cell-based, uHTS, luminescence (AID 2001); format: functional; settings: Homo sapiens
[24] = cytotoxicity toward NIH3T3 fibroblasts, dose response, counter-screen, cell-based, ATP luminescence, mouse fibroblasts (AID 2010); format: functional;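 further: cells exposed to compound for about 90 hours before reading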
[25] = tested on: HEK293; test: cells; format: functional, cell-based; settings: Homo sapiens; remark: listed apart in the source
[26] = tested on: HEK293; test: cells; format: functional, cell-based; settings: Homo sapiens; remark: listed apart in the source

Sequence of Glucose-6-phosphate 1-dehydrogenase (P11413 whole entry): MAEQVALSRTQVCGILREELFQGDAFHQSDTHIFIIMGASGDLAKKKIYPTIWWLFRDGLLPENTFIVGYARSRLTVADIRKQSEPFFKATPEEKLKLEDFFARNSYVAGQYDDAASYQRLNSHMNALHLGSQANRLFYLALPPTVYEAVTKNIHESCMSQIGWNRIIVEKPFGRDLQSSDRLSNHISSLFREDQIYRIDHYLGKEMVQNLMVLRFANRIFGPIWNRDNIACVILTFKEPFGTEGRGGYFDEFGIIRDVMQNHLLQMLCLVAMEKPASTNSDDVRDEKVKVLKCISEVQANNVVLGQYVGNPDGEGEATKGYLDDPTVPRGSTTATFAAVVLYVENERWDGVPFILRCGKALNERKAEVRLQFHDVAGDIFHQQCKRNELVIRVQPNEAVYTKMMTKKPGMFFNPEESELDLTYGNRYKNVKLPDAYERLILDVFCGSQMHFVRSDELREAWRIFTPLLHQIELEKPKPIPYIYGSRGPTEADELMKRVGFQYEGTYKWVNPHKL
Sequence of Cytochrome P450 2D6 (P10635 whole entry): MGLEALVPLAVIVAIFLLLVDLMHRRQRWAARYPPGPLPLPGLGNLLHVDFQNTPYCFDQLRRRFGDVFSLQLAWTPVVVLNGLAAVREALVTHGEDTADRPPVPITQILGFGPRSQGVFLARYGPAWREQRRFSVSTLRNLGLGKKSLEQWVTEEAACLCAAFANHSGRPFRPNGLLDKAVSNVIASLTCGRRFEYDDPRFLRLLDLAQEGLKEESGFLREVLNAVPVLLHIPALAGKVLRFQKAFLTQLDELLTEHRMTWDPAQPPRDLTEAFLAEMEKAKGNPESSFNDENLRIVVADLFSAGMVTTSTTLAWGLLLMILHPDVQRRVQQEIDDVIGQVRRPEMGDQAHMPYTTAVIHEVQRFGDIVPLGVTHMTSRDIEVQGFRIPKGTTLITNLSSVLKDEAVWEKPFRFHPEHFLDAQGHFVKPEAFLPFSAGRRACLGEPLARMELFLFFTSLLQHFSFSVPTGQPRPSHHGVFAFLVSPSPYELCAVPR
Sequence of Ras and Rab interactor 1/Tyrosine-protein kinase ABL1 (P00519 whole entry): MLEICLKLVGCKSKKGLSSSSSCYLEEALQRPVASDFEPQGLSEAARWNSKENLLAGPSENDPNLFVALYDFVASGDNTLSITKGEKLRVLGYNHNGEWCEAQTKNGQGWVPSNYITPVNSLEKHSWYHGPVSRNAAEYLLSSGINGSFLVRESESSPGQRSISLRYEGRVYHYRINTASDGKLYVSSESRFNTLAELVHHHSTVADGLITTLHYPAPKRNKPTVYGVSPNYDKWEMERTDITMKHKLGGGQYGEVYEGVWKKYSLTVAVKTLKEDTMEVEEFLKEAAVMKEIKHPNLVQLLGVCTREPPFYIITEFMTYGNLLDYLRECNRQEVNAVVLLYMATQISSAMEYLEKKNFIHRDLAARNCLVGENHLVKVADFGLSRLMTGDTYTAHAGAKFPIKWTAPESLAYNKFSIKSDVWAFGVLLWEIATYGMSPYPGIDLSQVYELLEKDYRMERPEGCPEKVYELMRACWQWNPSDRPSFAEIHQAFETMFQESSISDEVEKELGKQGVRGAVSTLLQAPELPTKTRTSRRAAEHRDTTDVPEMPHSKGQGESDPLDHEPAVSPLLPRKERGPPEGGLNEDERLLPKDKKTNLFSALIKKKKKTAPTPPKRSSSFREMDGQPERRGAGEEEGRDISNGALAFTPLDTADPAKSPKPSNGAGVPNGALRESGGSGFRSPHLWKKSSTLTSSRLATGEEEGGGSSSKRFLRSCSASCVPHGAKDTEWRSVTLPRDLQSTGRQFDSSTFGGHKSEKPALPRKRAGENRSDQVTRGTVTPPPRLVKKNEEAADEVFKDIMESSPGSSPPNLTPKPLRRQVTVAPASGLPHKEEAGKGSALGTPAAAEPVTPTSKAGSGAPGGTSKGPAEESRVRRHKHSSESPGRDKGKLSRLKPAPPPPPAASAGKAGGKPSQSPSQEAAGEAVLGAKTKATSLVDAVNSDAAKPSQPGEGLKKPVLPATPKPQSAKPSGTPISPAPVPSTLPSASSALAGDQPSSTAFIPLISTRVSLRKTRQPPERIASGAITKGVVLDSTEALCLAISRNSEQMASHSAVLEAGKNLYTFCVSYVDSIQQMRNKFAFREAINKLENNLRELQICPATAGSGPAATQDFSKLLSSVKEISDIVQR
Sequence of Ras and Rab interactor 1/Tyrosine-protein kinase ABL1 (Q13671 whole entry): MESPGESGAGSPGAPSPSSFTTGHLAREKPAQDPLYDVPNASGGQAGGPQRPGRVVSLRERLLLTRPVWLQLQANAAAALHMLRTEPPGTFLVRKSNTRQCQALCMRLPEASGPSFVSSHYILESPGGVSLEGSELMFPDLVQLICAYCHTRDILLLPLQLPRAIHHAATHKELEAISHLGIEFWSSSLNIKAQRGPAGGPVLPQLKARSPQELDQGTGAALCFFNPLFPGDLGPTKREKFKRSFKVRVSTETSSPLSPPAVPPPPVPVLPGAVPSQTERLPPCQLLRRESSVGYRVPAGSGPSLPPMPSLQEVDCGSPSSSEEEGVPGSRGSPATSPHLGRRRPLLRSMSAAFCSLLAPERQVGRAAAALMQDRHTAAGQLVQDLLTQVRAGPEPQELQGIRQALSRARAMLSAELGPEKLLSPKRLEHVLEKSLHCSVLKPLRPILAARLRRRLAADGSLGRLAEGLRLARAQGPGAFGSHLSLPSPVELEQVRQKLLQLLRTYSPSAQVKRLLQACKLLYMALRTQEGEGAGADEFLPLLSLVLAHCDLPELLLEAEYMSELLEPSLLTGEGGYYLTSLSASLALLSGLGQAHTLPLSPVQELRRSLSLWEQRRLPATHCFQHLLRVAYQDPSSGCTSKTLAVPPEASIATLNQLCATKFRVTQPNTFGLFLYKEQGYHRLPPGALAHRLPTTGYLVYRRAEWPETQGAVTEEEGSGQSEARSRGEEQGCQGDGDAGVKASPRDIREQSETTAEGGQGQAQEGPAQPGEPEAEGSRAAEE
Sequence of Cytochrome P450 3A4 (P08684 whole entry): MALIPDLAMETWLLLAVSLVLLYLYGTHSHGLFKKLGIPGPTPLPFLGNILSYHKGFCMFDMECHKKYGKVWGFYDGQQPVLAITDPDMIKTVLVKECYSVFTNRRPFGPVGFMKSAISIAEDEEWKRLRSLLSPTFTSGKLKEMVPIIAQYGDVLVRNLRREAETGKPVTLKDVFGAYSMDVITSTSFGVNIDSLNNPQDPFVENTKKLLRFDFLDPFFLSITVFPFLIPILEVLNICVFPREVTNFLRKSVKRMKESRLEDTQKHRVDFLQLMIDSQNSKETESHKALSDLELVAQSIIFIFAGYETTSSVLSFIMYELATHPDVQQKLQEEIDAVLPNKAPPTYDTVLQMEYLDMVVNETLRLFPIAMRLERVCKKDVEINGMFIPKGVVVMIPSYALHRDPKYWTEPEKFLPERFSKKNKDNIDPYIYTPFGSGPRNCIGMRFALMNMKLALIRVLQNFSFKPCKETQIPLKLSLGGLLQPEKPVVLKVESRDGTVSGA
Sequence of Beta-2 adrenergic receptor (P07550 whole entry): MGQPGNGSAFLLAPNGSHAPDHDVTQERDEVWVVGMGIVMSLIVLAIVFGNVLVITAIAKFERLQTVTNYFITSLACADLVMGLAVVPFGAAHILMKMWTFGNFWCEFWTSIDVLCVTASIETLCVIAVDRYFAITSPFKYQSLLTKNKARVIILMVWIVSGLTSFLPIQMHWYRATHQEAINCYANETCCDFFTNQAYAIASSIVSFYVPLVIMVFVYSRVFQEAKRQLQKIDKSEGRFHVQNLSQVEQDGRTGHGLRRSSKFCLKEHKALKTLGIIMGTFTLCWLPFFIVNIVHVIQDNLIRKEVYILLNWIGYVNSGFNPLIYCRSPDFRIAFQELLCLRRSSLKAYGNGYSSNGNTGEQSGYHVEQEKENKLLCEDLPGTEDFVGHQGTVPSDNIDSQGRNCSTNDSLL
Sequence of Genome polyprotein (P29990 2492-3391 limits assumed): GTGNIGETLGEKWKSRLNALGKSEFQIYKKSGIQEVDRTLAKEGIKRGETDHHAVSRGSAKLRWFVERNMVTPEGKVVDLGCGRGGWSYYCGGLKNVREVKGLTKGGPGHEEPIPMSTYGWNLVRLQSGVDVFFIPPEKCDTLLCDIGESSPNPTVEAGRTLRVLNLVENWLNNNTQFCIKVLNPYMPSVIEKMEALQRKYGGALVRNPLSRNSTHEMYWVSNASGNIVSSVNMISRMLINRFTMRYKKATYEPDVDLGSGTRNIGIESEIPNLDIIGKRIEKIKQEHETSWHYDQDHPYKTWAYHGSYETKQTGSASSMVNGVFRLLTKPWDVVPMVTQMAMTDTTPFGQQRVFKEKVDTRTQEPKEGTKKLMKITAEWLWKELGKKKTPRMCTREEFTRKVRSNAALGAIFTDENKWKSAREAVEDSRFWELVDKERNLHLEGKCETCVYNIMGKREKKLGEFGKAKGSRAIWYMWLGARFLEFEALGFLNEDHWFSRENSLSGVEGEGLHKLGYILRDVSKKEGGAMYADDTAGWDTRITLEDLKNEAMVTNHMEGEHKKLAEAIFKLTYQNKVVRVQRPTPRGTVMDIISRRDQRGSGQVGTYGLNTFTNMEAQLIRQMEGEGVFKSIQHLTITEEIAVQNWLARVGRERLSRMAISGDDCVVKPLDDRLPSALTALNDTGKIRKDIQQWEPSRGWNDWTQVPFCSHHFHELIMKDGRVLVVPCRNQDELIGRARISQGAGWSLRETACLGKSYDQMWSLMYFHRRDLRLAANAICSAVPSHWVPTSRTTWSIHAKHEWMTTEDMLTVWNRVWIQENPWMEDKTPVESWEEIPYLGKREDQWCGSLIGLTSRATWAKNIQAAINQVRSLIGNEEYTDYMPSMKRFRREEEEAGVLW

## O=C(O)COc1ccccc1/C=C1\C(=O)NC(=O)N(CCC2=CCCCC2)C1=O
[1]
  IC50: > 100 µM (active)

## N#Cc1cc(-c2ccccc2)nnc1Oc1ccccc1Cl
[2]
  EC50: 0.173 µM (active)

## CC[C@]1(O)C[C@H]2CN(CCc3c([nH]c4ccccc34)[C@](C(=O)OC)(c3cc4c(cc3OC)N(C=O)[C@H]3[C@@](O)(C(=O)OC)[C@H](OC(C)=O)[C@@]5(CC)C=CCN6CC[C@]43[C@H]65)C2)C1
[3]
  AC50: inconclusive

## COCCc1ncc(CN2CCC(C(=O)Nc3ccc(-n4cccn4)cc3)CC2)cn1
[2]
  EC50: 1.29 µM (active)

## Cc1ccc2nc(SCC(=O)N/N=C/c3ccco3)cc(C)c2c1
[4]
  IC50: 41.8 µM (inactive)

## CN(C)c1cc(NC(=O)CNC(C)(C)C)c2ccccc2n1
[5]
  AC50: 16.4 µM (active)

## COc1ccc([N+](=O)[O-])cc1/C=N/NC(=O)CNC(=O)c1cccc(F)c1
[6]
  IC50: 6.76 µM (active)
[7]
  IC50: 10.3 µM (active)
[8]
  AC50: 87.2 µM (active)

## CCc1cc(-c2n[nH]c(C)c2-c2nc3ccccc3n2C)c(O)cc1O
[4]
  IC50: > 80 µM (inactive)
[9]
  AC50: 40.6 µM (active)

## CCC1(CC)C(=O)C2=C3C1[C@H](C(=O)OC)C=C(C(=O)OC)C[C@H]3n1c(=O)n(-c3ccccc3)c(=O)n1[C@H]2C (some centres undefined)
[10]
  IC50: 22.4 µM (inactive)

## Cc1cc(C)n(-c2nc3c(c(=O)[nH]c(=O)n3C)n2CC(C)C)n1
[11]
  AC50: inconclusive
[3]
  AC50: inconclusive

## CCOC(=O)c1cnc2c(CC)cccc2c1NCCCN1CCOCC1
[5]
  AC50: 21.6 µM (active)

## CCOC(=O)CCCCCC(=O)Nc1ccc2c(c1)C(=O)N([C@H](C)CO)C[C@H](C)[C@@H](CN(C)C(=O)Nc1ccccc1)OCCCC[C@@H](C)O2
[10]
  IC50: 30.8 µM (inactive)

## COC(=O)C/C=C\[C@@H](C)[C@@H](/C=N\OC[C@@H](O)COCc1ccco1)NS(=O)(=O)c1ccc(C)cc1
[3]
  AC50: inconclusive

## CC(=O)c1cc(NC(=O)c2cccc(C(F)(F)F)c2)c(=O)oc1/C=C/N(C)C
[12]
  EC50: 22.2 µM (inactive)
[13]
  EC50: 5.91 µM (active)
[14]
  AC50: inconclusive
[15]
  AC50: 6.31 µM (inconclusive)
[16]
  EC50: > 300 µM (inconclusive)
[17]
  EC50: > 300 µM (not active)
[18]
  EC50: > 99 µM (inactive)

## CCOC(=O)CN1C(=O)NC2NC(=O)NC21 (centres undefined)
[10]
  IC50: 23.8 µM (inactive)

## COc1ccc(-c2cc(-c3ccc(Cl)cc3)c(C#N)c(SCC(=O)O)n2)cc1
[1]
  IC50: 50 µM (active)

## CC1CCc2[nH]c3ccc(C(=O)N(C)CC(=O)Nc4ccccc4C(F)(F)F)cc3c2C1 (centres undefined)
[4]
  IC50: > 80 µM (inactive)

## COC(=O)C/C=C\[C@@H](C)[C@@H](/C=N\OC[C@@H](O)[C@H]1O[C@H]2OC(C)(C)O[C@H]2[C@@H]1O)OC
[15]
  AC50: 5.01 µM (inconclusive)
[3]
  AC50: inconclusive

## O=C(NCCCn1ccnc1)C(=O)NCC(c1ccco1)N1CCN(c2ccc(F)cc2)CC1 (centres undefined)
[8]
  AC50: 99.3 µM (active)

## C/C(Cn1nnc([N+](=O)[O-])n1)=N\NC(=O)c1ccc(Cl)c(Cl)c1
[19]
  EC50: > 20 µM (inactive)
[20]
  EC50: 4.92 µM (active)
[21]
  IC50: > 20 µM (inactive)
[22]
  EC50: 0.184 µM (active)
[23]
  IC50: > 20 µM (inactive)
[4]
  IC50: > 80 µM (inactive)
[24]
  EC50: > 60 µM (not active)
[25]
  IC50: > 20 µM (inactive)
[26]
  IC50: 18.5 µM (active)
